Test system: NHBE cells
Assay: Biolog metabolic array: substrate use by NHBE cells with or without CA09 infection
Type: cell-based, human
Settings: for Substrate use, 590 nm absorbance normalized to zero hour, 0 hr: Biolog PMM2, 0 hr; for Substrate use, 590 nm absorbance normalized to zero hour, 1 hr: Biolog PMM2, 1 hr; for Substrate use, 590 nm absorbance normalized to zero hour, 5 hr: Biolog PMM2, 5 hr; for Substrate use, 590 nm absorbance normalized to zero hour, 7 hr: Biolog PMM2, 7 hr
[1] = Control (uninfected) NHBE cells
[2] = Virus (CA09-infected, MOI 1) NHBE cells
[3] = Virus: CA09-infected NHBE cells, MOI 1, Biolog PMM2
[4] = Virus (CA09-infected NHBE cells, MOI 1)

SMILES | 590 nm absorbance normalized to zero hour (substrate use), 0 hr [1] | 590 nm absorbance normalized to zero hour (substrate use), 1 hr [1] | 590 nm absorbance normalized to zero hour (substrate use), 3 hr [1] | 590 nm absorbance normalized to zero hour (substrate use), 4 hr [1] | 590 nm absorbance normalized to zero hour (substrate use), 6 hr [1] | 590 nm absorbance normalized to zero hour (substrate use), 8 hr [1] | 590 nm absorbance normalized to zero hour (substrate use), 9 hr [1] | 590 nm absorbance normalized to zero hour (substrate use), 10 hr [1] | 590 nm absorbance normalized to zero hour (substrate use), 11 hr [1] | Substrate use, 590 nm absorbance normalized to zero hour, 0 hr [1] | Substrate use, 590 nm absorbance normalized to zero hour, 1 hr [1] | Substrate use, 590 nm absorbance normalized to zero hour, 5 hr [1] | Substrate use, 590 nm absorbance normalized to zero hour, 7 hr [1] | 590 nm absorbance normalized to zero hour (substrate use), 0 hr [3] | 590 nm absorbance normalized to zero hour (substrate use), 1 hr [3] | 590 nm absorbance normalized to zero hour (substrate use), 2 hr [3] | 590 nm absorbance normalized to zero hour (substrate use), 3 hr [3] | 590 nm absorbance normalized to zero hour (substrate use), 4 hr [3] | 590 nm absorbance normalized to zero hour (substrate use), 5 hr [3] | 590 nm absorbance normalized to zero hour (substrate use), 6 hr [3] | further results
NCCCC(=O)O [g-Amino Butyric Acid] | 1.00 | 1.25 | 1.42 | 1.47 | 3.94 | 1.09 | 2.20 | 1.13 | 2.55 | 1.00 | 1.25 | 1.52 | 1.05 | 1.00 | 1.68 | 2.39 | 2.83 | 2.96 | 3.40 | 3.56 | 590 nm absorbance normalized to zero hour (substrate use), 0 hr [2]: 1.00; 590 nm absorbance normalized to zero hour (substrate use), 1 hr [2]: 1.68; 590 nm absorbance normalized to zero hour (substrate use), 2 hr [2]: 2.39; 590 nm absorbance normalized to zero hour (substrate use), 3 hr [2]: 2.83; 590 nm absorbance normalized to zero hour (substrate use), 4 hr [2]: 2.96; 590 nm absorbance normalized to zero hour (substrate use), 5 hr [2]: 3.40; 590 nm absorbance normalized to zero hour (substrate use), 6 hr [2]: 3.56; 590 nm absorbance normalized to zero hour (substrate use), 7 hr [2]: 3.70; 590 nm absorbance normalized to zero hour (substrate use), 8 hr [2]: 3.84; 590 nm absorbance normalized to zero hour (substrate use), 9 hr [2]: 3.99; 590 nm absorbance normalized to zero hour (substrate use), 10 hr [2]: 3.94; 590 nm absorbance normalized to zero hour (substrate use), 11 hr [2]: 3.74; 590 nm absorbance normalized to zero hour (substrate use), 7 hr [3]: 3.70; 590 nm absorbance normalized to zero hour (substrate use), 8 hr [3]: 3.84; 590 nm absorbance normalized to zero hour (substrate use), 9 hr [3]: 3.99; 590 nm absorbance normalized to zero hour (substrate use), 10 hr [3]: 3.94; 590 nm absorbance normalized to zero hour (substrate use), 11 hr [3]: 3.74
O=C(O)CCCO [g-Hydroxy-Butyric Acid] | 1.00 | 1.24 | 1.92 | 1.86 | 0.79 | 1.94 | 2.09 | 2.05 | 2.76 | 1.00 | 1.24 | 1.71 | 1.88 | 1.00 | 0.53 | 0.53 | 0.41 | 0.44 | 0.50 | 0.54 | 590 nm absorbance normalized to zero hour (substrate use), 2 hr [1]: 1.38; 590 nm absorbance normalized to zero hour (substrate use), 0 hr [4]: 1.00; 590 nm absorbance normalized to zero hour (substrate use), 1 hr [4]: 0.53; 590 nm absorbance normalized to zero hour (substrate use), 2 hr [4]: 0.53; 590 nm absorbance normalized to zero hour (substrate use), 3 hr [4]: 0.41; 590 nm absorbance normalized to zero hour (substrate use), 4 hr [4]: 0.44; 590 nm absorbance normalized to zero hour (substrate use), 5 hr [4]: 0.50; 590 nm absorbance normalized to zero hour (substrate use), 6 hr [4]: 0.54; 590 nm absorbance normalized to zero hour (substrate use), 7 hr [4]: 0.56; 590 nm absorbance normalized to zero hour (substrate use), 8 hr [4]: 0.59; 590 nm absorbance normalized to zero hour (substrate use), 9 hr [4]: 0.62; 590 nm absorbance normalized to zero hour (substrate use), 10 hr [4]: 0.63; 590 nm absorbance normalized to zero hour (substrate use), 11 hr [4]: 0.53; 590 nm absorbance normalized to zero hour (substrate use), 7 hr [3]: 0.56; 590 nm absorbance normalized to zero hour (substrate use), 8 hr [3]: 0.59; 590 nm absorbance normalized to zero hour (substrate use), 9 hr [3]: 0.62; 590 nm absorbance normalized to zero hour (substrate use), 10 hr [3]: 0.63; 590 nm absorbance normalized to zero hour (substrate use), 11 hr [3]: 0.53
OC[C@@H](O)[C@@H](O)CO [i-Erythritol] | 1.00 | 1.76 | 2.67 | 2.83 | 5.19 | 3.84 | 4.30 | 4.08 | 4.22 | 1.00 | 1.76 | 3.31 | 3.78 | 1.00 | 0.23 | 0.29 | 0.32 | 0.34 | 0.39 | 0.41 | 590 nm absorbance normalized to zero hour (substrate use), 2 hr [1]: 2.33; 590 nm absorbance normalized to zero hour (substrate use), 0 hr [4]: 1.00; 590 nm absorbance normalized to zero hour (substrate use), 1 hr [4]: 0.23; 590 nm absorbance normalized to zero hour (substrate use), 2 hr [4]: 0.29; 590 nm absorbance normalized to zero hour (substrate use), 3 hr [4]: 0.32; 590 nm absorbance normalized to zero hour (substrate use), 4 hr [4]: 0.34; 590 nm absorbance normalized to zero hour (substrate use), 5 hr [4]: 0.39; 590 nm absorbance normalized to zero hour (substrate use), 6 hr [4]: 0.41; 590 nm absorbance normalized to zero hour (substrate use), 7 hr [4]: 0.43; 590 nm absorbance normalized to zero hour (substrate use), 8 hr [4]: 0.45; 590 nm absorbance normalized to zero hour (substrate use), 9 hr [4]: 0.49; 590 nm absorbance normalized to zero hour (substrate use), 10 hr [4]: 0.50; 590 nm absorbance normalized to zero hour (substrate use), 11 hr [4]: 0.53; 590 nm absorbance normalized to zero hour (substrate use), 7 hr [3]: 0.43; 590 nm absorbance normalized to zero hour (substrate use), 8 hr [3]: 0.45; 590 nm absorbance normalized to zero hour (substrate use), 9 hr [3]: 0.49; 590 nm absorbance normalized to zero hour (substrate use), 10 hr [3]: 0.50; 590 nm absorbance normalized to zero hour (substrate use), 11 hr [3]: 0.53

Source: patent US11083725B2 (priority 2014, dated 2021)
